Measurements: US10399931B2, “Octahydroanthracene compound, preparation method and application thereof” (SHANDONG XINHUA PHARMACEUTICAL CO., LTD., priority 2016, dated 2019)

Legend:
APP/PS1 mice = test: Transmission electron microscopy of hippocampal CA1 neurons and synapses; format: in vivo
[1] = test system: Human leukemia HL60 cells; test: MTT assay, proliferation of human leukemia HL60 cells; format: cell-based; settings: Homo sapiens, HL-60, 48 h, 10 μM, 48 h, Mean ± SE; read-out: Inhibitive rate (%) against HL60 cells
Procedure: The survival rate of cells was determined by MTT assay, which is based on the metabolic reduction of 3-(4,5-dimethyl-2thiahiazoyl)-3,5-di-phenyl-tetrazolium bromide (MTT) by viable cells. MTT is a yellow compound, a dye that accepts hydrogen ion, which can act on the respiratory chain in the mitochondria of viable cells. Under the action of succinate dehydrogenase and cytochrome C, the tetrazolium ring was cleaved to form blue Formazan crystals, and the amount of Formazan crystals generated was only proportional to the number of the viable cells. The enzymes disappeared in dead cells, so Formazan crystals could not be dissolved in MTT solution containing 20% sodium dodecyl sulfate (pH 4.7).
The cells in the logarithmic growth phase were selected and adjusted to an appropriate cell density, seeded in a 96-well plate, 100 μl/well, and cultured in a 37° C., 5% CO2 incubator. The cells were allowed to adhere overnight, then the culture medium was replaced and the drug was added to cultivate for 48 h. A blank control group, a drug administration group and a positive control group were set, with four repeats in each group.
After 48 h of drug treatment, the cells were incubated with 0.25 mg/ml MTT at 37° C. for 3-4 h, and 100 μl of dimethyl sulfoxide (DMSO) was added to each well after aspirating the culture solution.

SYP, PSD95 and GAP43 = test: Western blot of synaptic-related proteins in APP/PS1 mice; format: in vivo
Procedure: (§1) After the behavioral experiment, the animals were anesthetized with an intraperitoneal injection of 3.5% chloral hydrate and cut off the heads quickly to take out the brains. The hippocampus and cortex of the brain were separated on ice, and then weighed and quickly frozen with liquid nitrogen, placed in a refrigerator at −80° C. for standby application.
(§2) The tissue lysate (5 μL PMSF protease inhibitor per mL of lysate) was added to the frozen brain tissue at a ratio of […] (6 mL/g tissue), and ultrasonically homogenized in an ice bath. After homogenization, the tissue homogenate was placed in crushed ice for 30 min, and then centrifuged at 12,000×g for 20 min at 4° C. The supernatant (about 200 μL) was taken and stored in a refrigerator at −80° C. for later use. A portion of the supernatant was taken for protein quantification.
According to the kit instruction, BCA working reagent was prepared by mixing reagent A with reagent B at a ratio of 50:1 thoroughly. The BCA working reagent was freshly prepared for use at room temperature with a stable period of 24 h. […] (5) The absorbance of the protein (at a wavelength of 540 nm) was determined by a microplate reader. (6) The standard curve was made by Excel, and the concentration of the detected protein was calculated based on the standard curve. […]

[2] = test system: Aβ metabolizing enzymes NEP and IDE; test: Expression of Aβ metabolizing enzymes in the brain of APP/PS1 mice; format: in vivo
Procedure: as §1, §2
Grayscale scanning of the X film was performed and the results were analyzed by the image analysis software of Quantity One 4.6.2. Differences and changes in the expression of the detected proteins between the groups were determined using β-actin as an internal reference. The relative value was calculated by the formula.

APP/PS1 transgenic mice = test: Nesting experiment; format: in vivo
Source text: Each mouse was separately housed in a cage. On the first day of the test, two pieces of cotton (5 cm×5 cm) were placed in the cage. […]

In the case of `CC1(C)CCC(C)(C)c2c1cc1c(c2NC(=O)c2ccc(NC(=O)NCCN)cc2)C(C)(C)CCC1(C)C` [OAB-14, 1-(2-amino) ethyl-3-{4-[(1,1,4,4,5,5,8,8-octamethyl-1,2,3,4,5,6,7,8-octahydro-9-anthryl)carbamoyl]phenyl} urea], the “Synaptic ultrastructure of the hippocampus (TEM)” value (APP/PS1 mice; 100 mg/kg group) is reported as “significantly improved”, the “Synaptic ultrastructure of the hippocampus (TEM)” value (APP/PS1 mice; 200 mg/kg group) is reported as “significantly improved” and the “Ultrastructure of hippocampal CA1 neurons (TEM)” value (APP/PS1 mice; dose-dependent, especially 200 mg/kg group) is reported as “significantly improved”. The inhibition at 10 µM [1] was 24.3 ± 3.18%, the “Expression of synaptic-related proteins SYP, PSD95 and GAP43” value (SYP, PSD95 and GAP43; 100 mg/kg group) was “significantly increased” and the “Expression of synaptic-related proteins SYP, PSD95 and GAP43” value (SYP, PSD95 and GAP43; 200 mg/kg group) was “significantly increased”. The “Expression of Aβ metabolizing enzymes NEP and IDE in the brain” value [2] was “increasing the expression”, the “Nesting ability vs model group” value (APP/PS1 transgenic mice; 100 mg/kg, at 12 h) was “significantly increased” and the “Nesting ability vs model group” value (APP/PS1 transgenic mice; 200 mg/kg, at 6 h) was “significantly increased”. For the same compound, the “Nesting ability vs model group” value (APP/PS1 transgenic mice; 200 mg/kg, at 12 h) was “significantly increased” and the “Nesting ability vs model group” value (APP/PS1 transgenic mice; 200 mg/kg, at 24 h) was “significantly increased”.
